Series [1] concerns ai5γ group II intron (D135 ribozyme). As to the kind of experiment: Fluorescent D135 ribozyme cleavage assay (IC50). The note with it: for IC50: D135 ribozyme cleavage of substrate 17/2 DL, 100 mM MgCl2, 500 mM KCl, 37° C., 10 minutes; for In vitro inhibitory activity, SAR statement (in words): relative to parent scaffold. The format is biochemical, Saccharomyces cerevisiae. The method in brief: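 D135 ribozyme (20 nM) with double-labeled substrate 17/2 DL (20 nM) in 50 mM MOPS pH 7.0, 100 mM MgCl2, 0.5 M KCl; 19 inhibitor concentrations, 5 nM–1 mM, 10 min at 37 °C, EDTA quench, fluorescence read. Triplicates fit to 4-parameter logistic for IC50; mean±s.e.m.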

A further series addresses ai5γ group II intron. As to the kind of experiment: Radioanalytic self-splicing assay of SE RNA (Ki). The format is biochemical, Saccharomyces cerevisiae. The note with it: 8 mM MgCl2, 100 mM KCl, pH 7.5, 30° C. Put shortly: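 Internally labeled SE RNA (2 nM) self-spliced with varying inhibitor in 50 mM MOPS pH 7.5, 8 mM MgCl2, 100 mM KCl at 30° C; time points resolved on 5% denaturing PAGE. kobs from single-exponential fits, Ki from non-competitive model kobs=kmax/(1+[I]/Ki); mean±s.e.m. of 2–4 runs.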

In the next series the test system is HEK-293T cells. As to the kind of experiment: Cytotoxicity in HEK-293T cells (Cell Titer Glo). The series is classed as cell-based, human. The note with it: for IC50: Homo sapiens. On the technique in general: In ATP-based viability assays light output follows the ATP content of the culture.
Where [2] appears, read: 72 hours growth in the presence of compounds, read-out: IC50 HEK-293T viability after 72-hour incubation.
Setting [3] is: cytotoxicity, 24 hours with compound, read-out: IC50 HEK-293.

The term IC50 denotes the concentration that inhibits the measured activity by half. Usually Ki stands for a measure of affinity in units of concentration, obtained from inhibition or displacement.

Read-outs that look alike come from different tables or passages of the source. Where only a bound is given, the exact number is not on record here.

Consider `CC(=O)c1ccc(-c2ccc3oc(C(=O)c4cc(O)c(O)c(O)c4)cc3c2)cc1` [APY-101, 1-(4-{2-[(3,4,5-Trihydroxyphenyl)carbonyl]-1-benzofuran-5-yl}phenyl)ethan-1-one], for which the IC50 in series [1] was 1.5 ± 0.1 µM; in the series with HEK-293T cells (setting [2]), 1.3 ± 0.1 µg/mL; in the series on HEK-293T cells (setting [3]), above 128 µg/mL. Further, at ai5γ group II intron, the Ki amounted to 2.1 ± 0.2 µM. In the series with HEK-293T cells (24 hours incubation), the “Toxicity in human cells (in words)” value is recorded as “did not show toxicity”.
On to `Br.CCN(CC)Cc1ccc(-c2ccc3oc(C(=O)c4cc(O)c(O)c(O)c4)cc3c2)cc1` [APY-090, 5-[(5-{4-[(Diethylamino)methyl]phenyl}-1-benzofuran-2-yl)carbonyl]benzene-1,2,3-triol hydrobromide], for which the IC50 worked out at 2.1 ± 0.4 µM in series [1] and 1.7 ± 0.6 µg/mL in the series on HEK-293T cells (setting [3]). The compound also gave an inhibition constant Ki on ai5γ group II intron of 0.37 ± 0.04 µM.
`CCCCNS(=O)(=O)c1ccc(-c2ccc(-c3nc(-c4cc(O)c(O)c(O)c4)cs3)cc2)cc1` [APY-093, N-Butyl-4-{4-[4-(3,4,5-trihydroxyphenyl)-1,3-thiazol-2-yl]phenyl}benzene-1-sulfonamide]: in series [1], the IC50 was determined as 86 ± 3 µM and the “In vitro inhibitory activity, SAR statement (in words)” value was “substantial loss of activity”. The Ki at ai5γ group II intron is 53 ± 5 µM. Also, the 50% inhibitory concentration (IC50) with HEK-293T cells (setting [3]) was found to be 7.2 ± 1.5 µg/mL.
As for `O=C(c1cc(O)c(O)c(O)c1)c1cc2cc(-c3ccc(CO)cc3)ccc2o1` [APY-084, 5-({5-[4-(Hydroxymethyl)phenyl]-1-benzofuran-2-yl}carbonyl)benzene-1,2,3-triol], the concentration for half-maximal inhibition (IC50) in series [1] was 0.9 ± 0.1 µM; with HEK-293T cells (setting [2]), 1 ± 0.04 µg/mL; in the series on HEK-293T cells (setting [3]), 1.1 ± 0.1 µg/mL. For the same compound, on ai5γ group II intron, affinity was put at a Ki of 1.3 ± 0.4 µM.
For the compound `Cc1ccncc1-c1ccc2oc(C(=O)c3cc(O)c(O)c(O)c3)cc2c1` [APY-081, 5-{[5-(4-Methylpyridin-3-yl)-1-benzofuran-2-yl]carbonyl}benzene-1,2,3-triol], the half-inhibitory concentration (IC50) was 6.8 ± 1.1 µM in series [1], 0.79 ± 0.09 µg/mL in the series on HEK-293T cells (setting [2]) and above 128 µg/mL in the series with HEK-293T cells (setting [3]). Moreover, the inhibition constant Ki on ai5γ group II intron came to 5.3 ± 0.2 µM.
As to `O=C1/C(=C/c2cc(O)cc(O)c2)Oc2cc(O)cc(O)c21` [APY-014, (Z)-2-(3,5-Dihydroxybenzylidene)-4,6-dihydroxybenzofuran-3(2H)-one], the concentration for half-maximal inhibition (IC50) in series [1] was 266 ± 37 µM; in the series with HEK-293T cells (setting [3]), above 64 µg/mL. Moreover, the “In vitro inhibitory activity, SAR statement (in words)” value in series [1] is listed as “nearly complete loss of activity”. The compound further registered a Ki on ai5γ group II intron of 251 ± 31 µM.

These data come from US12421257B2, “Compositions and methods for inhibiting group II intron RNA” (YALE UNIVERSITY, priority 2018, dated 2025).
